According to US20060073172A1, “Stabilized ophthalmic solution for the treatment of glaucoma and lowering intraocular pressure” (priority 2004, published 2006):

Experiments:
5-HT2 receptors = conditions: cited from earlier work; for 5-HT2 receptor subtype selectivity: 5-HT2A, 5-HT2B, 5-HT2C
[1] = Stabilization of 1-(2-aminopropyl)-indazol-6-ol by classical antioxidants; format: physicochemical; conditions: aqueous solution

Compound | 5-HT2 receptor subtype selectivity (5-HT2 receptors) | Stabilization by classical antioxidants (sodium metabisulfite, propyl gallate, ascorbic acid) [1] | 5-HT2 agonist activity (5-HT2 receptors)
COc1ccc2[nH]cc(CC(C)N)c2c1 (stereo not drawn) [5-methoxy-α-methyltryptamine] | profile similar to that of α-methyl-serotonin | – | –
COc1cc(C[C@@H](C)N)c(OC)cc1I [(R)-DOI, (R)4-iodo-2,5 dimethoxy-α-methyl-benzeneethanamine] | not selective amongst the 5-HT2 receptor subtypes | – | –
CC(N)Cn1ncc2ccc(O)cc21 (centres unmarked) [AL-34662, 1-(2-aminopropyl)-indazol-6-ol] | – | did not stabilize | –
CC(N)Cc1c[nH]c2ccc(O)cc12 (stereo not drawn) [α-methyl-serotonin] | modest receptor subtype selectivity: 5-HT2B>5-HT2C>5-HT2A | – | potent 5-HT2 agonist
